Earlier results, collected in patent publication US20070122350A1, “Safe and effective methods of administering therapeutic agents” (Transave, Inc., priority 2005, published 2007).

Conditions: OSHA

Question: Which “legal airborne permissible exposure limit (PEL)” value (averaged over an eight-hour work shift) does the source give for `N.N.[Cl][Pt][Cl]` [cisplatin, Cis-diamminedichloroplatinum(II)] here?
Answer: 2·10^−3 mg/m^3

Question: What about the “legal airborne permissible exposure limit (PEL), equivalent” value (per liter of air during 480 consecutive minutes) of the same compound?
Answer: 2 ng/L
